Assay results from patent US6391304B1, “Peptides derived from the ENV gene of the feline immunodeficiency virus and their applications” (Centre National de la Recherche Scientifique, priority 1997, dated 2002).
Where “and” joins values, the source holds several entries; their conditions need not be identical. Equal values may be shown once. Entries after “also recorded” stand apart in the source; their conditions may differ. Ends that are not written are not given here.

Columns and labels:
[1] = tested on: p25 recombinant FIV capsid protein; test: Seroconversion ELISA after the virulence test, p25; format: in vivo, cats; conditions: for Binding of the sera to p25, 3 weeks after the virulence test / Binding of the sera to p25, 4 weeks after the virulence test / Binding of the sera to p25, 5 weeks after the virulence test: ELISA, seral dilution 1/100, individual cats
Experimental: (§1) The cats are subjected to a virulence test, one week after the final immunization, by means of an intraperitoneal inoculation of 10 CID50 of FIV Wo isolate, one CID50 corresponding to the dose capable of infecting 50% of the cats.
(§2) The production on of antibodies is evaluated before the test by means of an ELISA using an immobilized peptide (SU2, SU5, TM2 or TM3-19) and immunoprecipitation. After the test, the seroconversion is monitored by an ELISA using immobilized envelope peptides and a recombinant FTV capsid protein.
(§3) The ELISA with the immobilized envelope peptides corresponding to the immunogenic domains SU2 and TM2 and with the immobilized recombinant p25 protein (FIV capsid protein) is carried out as described in Avraméas A. et al. (Res. Virol., 1993, 144, 209-218).
(§4) Microplates (Immunolon II, Dynatech) are coated with 0.5 μg/well for the peptides and with 0.1 μg/well for the p25 protein.
(§5) The tests are carried out in duplicate and the results are expressed as average values.
After the test, the seroconversion against the envelope peptides and the p25 protein is evaluated at serum dilutions of 1/25 and 1/100, respectively.
The absorbance values (at 405 nm) are corrected by subtraction of the absorbance values obtained by binding with an immobilized control peptide.
The tests are normalized with reference to the binding of a mixture of serum from cats infected with FIV with a peptide representing the immunodominant domain of the FIV transmembrane glycoprotein (TM2) (Avraméas A. et al., Res. Virol., 1993, 144, 209-218).

[2] = tested on: FIV Wo isolate; test: Plasmatic viral load by competitive RT-PCR after the virulence test; format: in vivo, cats; conditions: for course of the primary infection (viral RNA in plasma, viral dissemination): after test with 10 CID50 of Wo isolate, relative to control cats, FIG. 3
Experimental: (§6) Groups of four cats 4½ months old are immunized subcutaneously with 120 μg of FIV peptide (approximately 250 μg of peptide coupled to KLH (keyhole limpet haemocyanin)), emulsified in complete Freund's adjuvant.
(§7) Four repeat immunizations are administered subcutaneously in an incomplete Freund's adjuvant, generally at intervals of 2-3 weeks, although the interval between the last 2 […] was 7 weeks.
as §1
The plasma is filtered (0.45 μm) and the RNA not associated with cells is extracted directly from the filtered plasma using the Viral RNA kit (Qiagene) and eluted in 50 μl of water according to the manufacturer's instructions, and the RNA is then divided into aliquots and stored at −80° C.
A conserved region of the FIV gag gene is selected as a target sequence for the reverse transcription of the competitive RNA and the overlapping PCR amplification.
For the synthesis of the cDNA, 2.5 μl of viral RNA are mixed with 2.5 μl containing different numbers of copies of competitive RNA; typically, the various samples of competitive RNA are prepared using 5 semi-logarithmic dilutions, straddling the number of copies estimated in the biological sample.
The RNA is denatured at 65° C. for 5 minutes and immediately placed on ice. The reagents for the reverse transcription (15 μl) are added.
The final reaction mixtures contain 0.3 U/ml of random hexanucleotides (sequences of 6 randomly aligned nucleotides which make it possible theoretically to amplify any RNA fragment) (Pharmcia), 0.5 mM of dNTP, 10 mM of DTT, 1× of commercial buffer (Gibco BRL) and 100 U of Superscript II (Glbco BRL), in a volume of 20 μl.
The reactions are first carried out at 25° C. for 10 minutes to promote the hybridization of the primers, and then at 42° C. for 50 minutes. The reverse transcriptase is inactivated by incubation at 95° C. for 5 minutes.
The highly conserved sequences are selected as primers. The complementary DNA is amplified by overlapping PCR, using:
For the first amplification, the PCR reagents (80 μl) are added as a mixture with 20 μl of cDNA.
The DNA is denatured at 94° C. for 3 minutes, subjected to 28 cycles of amplification (94° C. 30 s/55° C. 30 s/72° C. 30 s) and to an elongation at 72° C. for 7 minutes.
For the overlapping amplification, 2 μl of the product of the first amplification is transferred into 98 μl of reaction mixture containing 200 μM of dNTP, 1.5 mM of MgCl2, 0.5 μM of each internal primer, 1× of commercial buffer (Gibco BRL) and 0.25 U of Taq polymerase (Gibco BRL).
The DNA is denatured at 94° C. for 3 minutes, subjected to 28 cycles of amplification (94° C. 30 s/52° C. 30 s/72° C. 30 s) and to an elongation at 72° C. for 7 minutes.
The amplification products (10 μl ) are subjected to electrophoresis on 2.75% agarose gel.
Digital images of the gels stained with ethidium bromide are obtained using the Appligene Imager and the densitometry analyses are carried out with the Image NIH software. The density of the competitive product is adjusted as a function of the difference between the length of the native sequence and that of the competitive sequence.
The logarithm of the ratio:density or competitive product/density of the native product, is plotted as a function of the logarithm of the number of copies of competitive RNA added to each reaction.
The best adjustment is determined by the least-squares method and the number of copies of native RNA corresponds to the intersection of the axis of the Xs (Piatak M. Jr. et al., Biotechniques, 1993, 14, 70-80).
The cumulative area under the curve (Dawson J., Drug Information J., 1994, 28, 723-732) is calculated from graphs illustrating the ratio: copies of viral RNA/ml of plasma/time, and compared with the Mann-Whitney test.

[3] = tested on: immobilized peptide (SU2, SU5, TM2 or TM3-19); test: ELISA anti-peptide titre during the immunization of cats; format: in vivo; conditions: individual cats immunized with KLH-coupled peptide; absorbance at 405 nm greater than 0.1
Experimental: as §6, §7, §2, §3, §4, §5
The anti-peptide titres before the test are expressed as the logarithm of the inverse of the last dilution of serum which gives an absorbance (at 405 nm) of greater than 0.1.

Substance | Binding of the sera to p25, 3 weeks after the virulence test [1] | Binding of the sera to p25, 4 weeks after the virulence test [1] | Binding of the sera to p25, 5 weeks after the virulence test [1] | course of the primary infection (viral RNA in plasma, viral dissemination) [2] | Anti-peptide titre, 1st injection [3] | Anti-peptide titre, 2nd injection [3] | Anti-peptide titre, Day of the test [3] | response to the p25 protein ([1]; at 5 weeks after the test) | Plasmatic viraemia, RT-PCR ([2]; 3 weeks after the test with 10 CID50 of FIV Wo, individual cats) | reduction in the viral load relative to the control cats, Mann-Whitney test p ([2]; area under the cumulative curve at 3 weeks and 4 weeks after the test) | detection of plasmatic viraemia during the measurement period ([2]; cat 348) | number of copies of viral RNA observed in plasma (maximum) ([2]; primary infection, measurement period)
SU2: peptide of the SU2 domain of the FIV surface envelope glycoprotein, SEQ ID NO: 2, used as immunogen (RAISSWKQRNRWEWRPD) | 0 optical density | 0.2 optical density (2×) and 0.4 optical density and 0 optical density | 1.1 optical density and 1.3 optical density and 1.9 optical density and 0.2 optical density | does not appear to modify the course of the primary infection; also recorded: do not modify the course of the infection | 4.40 logarithm of the inverse of the last dilution of serum and 5.31 logarithm of the inverse of the last dilution of serum and 4.71 logarithm of the inverse of the last dilution of serum and 5.01 logarithm of the inverse of the last dilution of serum | 4.71 logarithm of the inverse of the last dilution of serum and 5.01 logarithm of the inverse of the last dilution of serum (2×) and 5.31 logarithm of the inverse of the last dilution of serum | 5.31 logarithm of the inverse of the last dilution of serum and 4.71 logarithm of the inverse of the last dilution of serum and 5.61 logarithm of the inverse of the last dilution of serum and 5.01 logarithm of the inverse of the last dilution of serum |  |  |  |  | 
KKGLQQLQEWEDWVGWIGN [TM3-19, 19-amino-acid fragment of the TM3 domain of the FIV Wo Env transmembrane glycoprotein (759-777)] | 0 optical density (2×) and 0.2 optical density and 0.1 optical density | 0.1 optical density and 2.3 optical density and 0 optical density (2×) | 0.6 optical density and 2.3 optical density and 0 optical density and 0.1 optical density | generally different from that observed with the control cats; also recorded: the infection in the other 3 cats of this group appears in a retarded manner; also recorded: significantly retards the viral dissemination | 4.71 logarithm of the inverse of the last dilution of serum and 5.01 logarithm of the inverse of the last dilution of serum and 5.31 logarithm of the inverse of the last dilution of serum | 4.71 logarithm of the inverse of the last dilution of serum and 5.31 logarithm of the inverse of the last dilution of serum and 5.01 logarithm of the inverse of the last dilution of serum and 3.20 logarithm of the inverse of the last dilution of serum | 4.40 logarithm of the inverse of the last dilution of serum (3×) and 4.71 logarithm of the inverse of the last dilution of serum | one cat (348) immunized with the TM3-19 peptide does not respond and among the other 3 cats, 2 animals (346, 349) develop only weak responses | undetectable (2×) and 1.19 × 10^7 copies of viral RNA/ml of plasma and 5.56 × 10^6 copies of viral RNA/ml of plasma | 0.02 | not possible to detect a plasmatic viraemia in one of the cats (348) | ≤ 3.1×10^6 copies/ml
